Laboratory results from ChEMBL document CHEMBL1201862, “PubChem BioAssay data set” (2004).
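Test compounds were applied to cells in 96-well plates for 48 hours at 5 doses. GI50: concentration for 50% inhibition of growth.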 Activity calls are given as the source filed them. No stated cut-off is given here; in the data, active = GI50 up to about 1.1 µM and inactive = higher.

What was measured:
Assay in all cases: NCI anticancer screen, dose series, 48 h
A498 = test system: A498
A549 = test system: A549
CAKI-1 = test system: CAKI-1
CCRF-CEM = test system: CCRF-CEM
HOP-62 = test system: HOP-62
K562 = test system: K562
KM12 = test system: KM12
NCI-H23 = test system: NCI-H23
NCI-H460 = test system: NCI-H460
NCI-H522 = test system: NCI-H522
OVCAR-4 = test system: OVCAR-4
RPMI-8226 = test system: RPMI-8226
SK-MEL-28 = test system: SK-MEL-28
SNB-19 = test system: SNB-19
TK-10 = test system: TK-10
U-251 = test system: U-251

Measured: GI50

COc1ccccc1/N=N/C(C(=O)c1ccccc1)C(=O)c1ccccc1
inactive: A498 25.2 µM | A549 22.4 µM | CAKI-1 25.2 µM | CCRF-CEM 7.91 µM | HOP-62 15.5 µM | K562 16.9 µM | KM12 29.2 µM | NCI-H23 19.2 µM | NCI-H460 19.6 µM | NCI-H522 16.1 µM | OVCAR-4 9.53 µM | RPMI-8226 12.4 µM | SK-MEL-28 26.9 µM | SNB-19 17.2 µM | TK-10 50.2 µM | U-251 18.5 µM

CC(=O)O[C@H]1CC[C@@]2(C)C(=C/C(=N\[N+](=O)[O-])[C@H]3C4CCC([C@H](C)CCCC(C)C)[C@@]4(C)CCC32)C1 (stereo partly specified)
inactive: A498 > 100 µM | A549 > 100 µM | CAKI-1 > 100 µM | HOP-62 > 100 µM | K562 > 100 µM | NCI-H23 > 100 µM | NCI-H460 > 100 µM | NCI-H522 > 100 µM | OVCAR-4 > 100 µM | RPMI-8226 > 100 µM | SK-MEL-28 > 100 µM | SNB-19 > 100 µM | TK-10 > 100 µM

CCOC(=O)NC(=O)c1cn(-c2ccc(CCOC(=O)NCCCCCCNC(=O)OCCc3ccc(-n4c(=O)[nH]cc(C(=O)NC(=O)OCC)c4=O)cc3)cc2)c(=O)[nH]c1=O
inactive: A498 > 80.4 µM | A549 > 100 µM | CAKI-1 > 100 µM | CCRF-CEM 32.6 µM | HOP-62 37.6 µM | K562 > 100 µM | KM12 > 100 µM | NCI-H23 49.4 µM | NCI-H460 28.8 µM | NCI-H522 22.4 µM | OVCAR-4 > 100 µM | RPMI-8226 > 100 µM | SK-MEL-28 > 100 µM | SNB-19 23.2 µM | TK-10 58.3 µM | U-251 33.2 µM

CCOC(=O)C1(C)C2=CC=C(O2)C(C)(C)C2=CC=C(O2)C(C)(C)C2=CC=C(O2)C(C)(C)C2=CC=C1O2
inactive: A498 > 100 µM | A549 42.6 µM | CAKI-1 > 100 µM | CCRF-CEM 64.3 µM | HOP-62 > 100 µM | K562 > 100 µM | KM12 > 100 µM | NCI-H23 > 100 µM | NCI-H460 > 100 µM | NCI-H522 > 100 µM | OVCAR-4 3.44 µM | SK-MEL-28 > 100 µM | SNB-19 > 100 µM | TK-10 > 100 µM | U-251 48.3 µM

COc1ccc2c(c1)c1c3n2CCNN=C3CCC1
inactive: A498 > 100 µM | A549 > 83.8 µM | CAKI-1 24.8 µM | CCRF-CEM 56.1 µM | HOP-62 > 74.3 µM | K562 > 81.1 µM | KM12 > 100 µM | NCI-H23 > 62.8 µM | NCI-H460 > 100 µM | NCI-H522 21.5 µM | OVCAR-4 > 100 µM | RPMI-8226 29.4 µM | SK-MEL-28 > 100 µM | SNB-19 > 100 µM | TK-10 > 53 µM | U-251 > 48.5 µM

O=C(O)c1ccc(S(=O)(=O)c2ccccc2)c([N+](=O)[O-])c1
inactive: A498 > 100 µM | A549 > 100 µM | CAKI-1 > 100 µM | CCRF-CEM > 100 µM | HOP-62 > 100 µM | K562 > 100 µM | KM12 > 100 µM | NCI-H23 > 100 µM | NCI-H460 > 100 µM | NCI-H522 > 100 µM | OVCAR-4 > 100 µM | RPMI-8226 > 100 µM | SK-MEL-28 > 100 µM | SNB-19 > 100 µM | TK-10 > 100 µM | U-251 > 100 µM

O=C(NC1C=Nc2ccccc2NC1=O)c1ccccc1Cl (stereo unspecified)
inactive: A498 28.8 µM | A549 48 µM | CAKI-1 46.8 µM | CCRF-CEM 14 µM | HOP-62 > 100 µM | K562 11.1 µM | KM12 50.7 µM | NCI-H23 43.9 µM | NCI-H460 44 µM | NCI-H522 20.1 µM | OVCAR-4 33.3 µM | SK-MEL-28 > 100 µM | SNB-19 > 100 µM | TK-10 46.2 µM | U-251 28.8 µM

Oc1cc(C2OCCCO2)cc(O)c1O
inactive: A498 > 100 µM | A549 > 100 µM | CAKI-1 > 100 µM | CCRF-CEM > 100 µM | HOP-62 > 100 µM | K562 > 100 µM | KM12 > 100 µM | NCI-H23 > 100 µM | NCI-H460 > 100 µM | NCI-H522 > 100 µM | OVCAR-4 > 100 µM | RPMI-8226 > 100 µM | SK-MEL-28 > 100 µM | SNB-19 > 100 µM | TK-10 > 100 µM | U-251 > 100 µM

CC(=O)NC(CC(C)C)C(=O)NC(Cc1ccccc1)C(=S)N1CCCC1 (stereo unspecified)
inactive: A498 > 100 µM | A549 > 100 µM | CAKI-1 > 100 µM | CCRF-CEM > 100 µM | HOP-62 > 100 µM | K562 > 100 µM | KM12 > 100 µM | NCI-H23 > 100 µM | NCI-H460 > 100 µM | NCI-H522 > 100 µM | OVCAR-4 > 100 µM | RPMI-8226 > 100 µM | SK-MEL-28 > 100 µM | SNB-19 > 100 µM | TK-10 > 100 µM | U-251 > 100 µM

CCCCCCCCCCCCC(CCCCCCCCCCCC)OP(=O)(O)O
inactive: A498 20.6 µM | A549 > 100 µM | CAKI-1 > 100 µM | CCRF-CEM > 100 µM | HOP-62 > 100 µM | K562 62.2 µM | KM12 > 100 µM | NCI-H23 > 100 µM | NCI-H460 > 100 µM | NCI-H522 84.7 µM | OVCAR-4 > 100 µM | RPMI-8226 56.6 µM | SK-MEL-28 > 100 µM | SNB-19 91.6 µM | TK-10 > 100 µM | U-251 34 µM

CC(C)(C)c1ccc(OC2CCO2)cc1 (stereo unspecified)
inactive: A498 43.2 µM | A549 61.2 µM | CAKI-1 38.1 µM | CCRF-CEM 24.7 µM | HOP-62 > 100 µM | K562 17.3 µM | KM12 25.9 µM | NCI-H23 55.5 µM | NCI-H460 24.3 µM | NCI-H522 23.6 µM | OVCAR-4 34.2 µM | RPMI-8226 22.1 µM | SK-MEL-28 98.6 µM | SNB-19 52.2 µM | TK-10 42.4 µM | U-251 18.7 µM

COC(=O)C1C=CCC2CCCCC21N1CCCC1 (stereo unspecified)
inactive: A498 > 100 µM | A549 71.8 µM | CAKI-1 > 100 µM | CCRF-CEM 53.1 µM | HOP-62 > 100 µM | KM12 53.6 µM | NCI-H460 55.2 µM | NCI-H522 53.8 µM | OVCAR-4 > 100 µM | RPMI-8226 42.7 µM | SK-MEL-28 98.9 µM | SNB-19 82.2 µM | TK-10 > 100 µM | U-251 40.4 µM

CCC(=O)N/N=C(\C=C\c1cccc(O)c1)c1sc(Nc2ccc(C)cc2[N+](=O)[O-])nc1C
inactive: A498 > 100 µM | A549 > 100 µM | CAKI-1 > 100 µM | CCRF-CEM 99.1 µM | HOP-62 > 100 µM | K562 > 100 µM | KM12 > 100 µM | NCI-H23 2.22 µM | NCI-H460 > 100 µM | NCI-H522 45.8 µM | OVCAR-4 49 µM | RPMI-8226 > 100 µM | SK-MEL-28 > 100 µM | SNB-19 > 100 µM | TK-10 > 100 µM | U-251 > 100 µM
